The IC50 is the concentration that gives 50% inhibition.

For the assay, the target named is T1, Recombinant human His-tagged Trim24-PHD-bromodomain (Homo sapiens, UniProt O15164).
T1 construct: Recombinant human His-tagged Trim24-PHD-bromodomain (produced in-house); made in house
T1 sequence (O15164 824-1006 limits assumed): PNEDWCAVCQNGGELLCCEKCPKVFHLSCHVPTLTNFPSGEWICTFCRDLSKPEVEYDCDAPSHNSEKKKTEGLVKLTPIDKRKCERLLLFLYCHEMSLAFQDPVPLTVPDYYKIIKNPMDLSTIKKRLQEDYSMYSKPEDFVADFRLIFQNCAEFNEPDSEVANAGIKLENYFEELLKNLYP
In words: Trim24 AlphaScreen Assay. It counts as binding. Conditions: 5 nM Trim24 protein, 15 nM biotinylated H3K23ac (1-33aa) peptide. In outline: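 AlphaScreen read-out after 2 h with streptavidin donor and Ni-chelate acceptor beads at 10 ug/mL each, following 1 h room-temperature incubation of compound, His-tagged PHD-bromodomain protein and biotin-H3K23ac (1-33aa) peptide in Hepes pH 7.5 buffer with NaCl and Triton X-100. Signals normalised between no-compound and no-protein wells; IC50 from four-parameter logistic curves.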
On the technique in general: Alpha assays give light when donor and acceptor beads are brought close together.
For `CCCOc1cc(OCCCOC)cc(Oc2cc3c(cc2NS(=O)(=O)c2cccnc2)n(C)c(=O)n3C)c1` [Example 137, N-(6-(3-(3-methoxypropoxy)-5-propoxyphenoxy)-1,3-dimethyl-2-oxo-2,3-dihydro-1H-benzo[d]imidazol-5-yl)pyridine-3-sulfonamide], the IC50 was 10 to 100 nM. Consider `CCCOc1cc(OCCCOC)cc(Oc2cc3c(cc2NS(=O)(=O)c2ccc(OC)c(OC)c2)n(C)c(=O)n3C)c1` [Example 138, 3,4-dimethoxy-N-(6-(3-(3-methoxypropoxy)-5-propoxyphenoxy)-1,3-dimethyl-2-oxo-2,3-dihydro-1H-benzo[d]imidazol-5-yl)benzenesulfonamide], for which the IC50 was 10 to 100 nM. For `CCCOc1cc(OCCCOC)cc(Oc2cc3c(cc2NS(=O)(=O)c2cn(C(C)C)c(C)n2)n(C)c(=O)n3C)c1` [Example 139, 1-isopropyl-N-(6-(3-(3-methoxypropoxy)-5-propoxyphenoxy)-1,3-dimethyl-2-oxo-2,3-dihydro-1H-benzo[d]imidazol-5-yl)-2-methyl-1H-imidazole-4-sulfonamide] the value was 10 to 100 nM; for `CCCOc1cc(OCCCOC)cc(Oc2cc3c(cc2NS(=O)(=O)c2cn4c(n2)CCCC4)n(C)c(=O)n3C)c1` [Example 140, N-(6-(3-(3-methoxypropoxy)-5-propoxyphenoxy)-1,3-dimethyl-2-oxo-2,3-dihydro-1H-benzo[d]imidazol-5-yl)-5,6,7,8-tetrahydroimidazo[1,2-a]pyridine-2-sulfonamide], 10 to 100 nM; for `COCCCOc1cc(OCC(F)(F)F)cc(Oc2cc3c(cc2NS(=O)(=O)c2cn(C)c(C)n2)n(C)c(=O)n3C)c1` [Example 141, N-(6-(3-(3-methoxypropoxy)-5-(2,2,2-trifluoroethoxy)phenoxy)-1,3-dimethyl-2-oxo-2,3-dihydro-1H-benzo[d]imidazol-5-yl)-1,2-dimethyl-1H-imidazole-4-sulfonamide], 10 to 100 nM. For `C=CCOc1cccc(Oc2cc3c(cc2NS(=O)(=O)c2cccc4ccccc24)n(C)c(=O)n3C)c1` [Example 142, N-(6-(3-(allyloxy)phenoxy)-1,3-dimethyl-2-oxo-2,3-dihydro-1H-benzo[d]imidazol-5-yl)naphthalene-1-sulfonamide] the value was 100 to 1000 nM. For `C=CCOc1cccc(Oc2cc3c(cc2NS(=O)(=O)c2ccc(OC)c(NC(C)=O)c2)n(C)c(=O)n3C)c1` [Example 143, N-(5-(N-(6-(3-(allyloxy)phenoxy)-1,3-dimethyl-2-oxo-2,3-dihydro-1H-benzo[d]imidazol-5-yl)sulfamoyl)-2-methoxyphenyl)acetamide] the value was 100 to 1000 nM. For `C=CCOc1cccc(Oc2cc3c(cc2NS(=O)(=O)c2ccccn2)n(C)c(=O)n3C)c1` [Example 144, N-(6-(3-(allyloxy)phenoxy)-1,3-dimethyl-2-oxo-2,3-dihydro-1H-benzo[d]imidazol-5-yl)pyridine-2-sulfonamide], the IC50 lay in the range of 100 to 1000 nM. For `COc1ccc(S(=O)(=O)Nc2cc3c(cc2Oc2cccc(OCCCCCCN)c2)n(C)c(=O)n3C)cc1OC` [Example 145, N-(6-(3-((6-aminohexyl)oxy)phenoxy)-1,3-dimethyl-2-oxo-2,3-dihydro-1H-benzo[d]imidazol-5-yl)-3,4-dimethoxybenzenesulfonamide] the value was 10 to 100 nM; for `Cn1cnc(S(=O)(=O)Nc2cc3c(cc2Oc2cccc(OCCCCCCN)c2)n(C)c(=O)n3C)c1` [Example 146, N-(6-(3-((6-aminohexyl)oxy)phenoxy)-1,3-dimethyl-2-oxo-2,3-dimethyl-2-oxo-2,3-dihydro-1H-benzo[d]imidazol-5-yl)-1-methyl-1H-imidazole-4-sulfonamide], 100 to 1000 nM; for `CCCOc1cc(OCCCOC)cc(Oc2cc3c(cc2NS(=O)(=O)c2cn(CC(C)C)cn2)n(C)c(=O)n3C)c1` [Example 147, 1-isobutyl-N-(6-(3-(3-methoxypropoxy)-5-propoxyphenoxy)-1,3-dimethyl-2-oxo-2,3-dihydro-1H-benzo[d]imidazol-5-yl)-1H-imidazole-4-sulfonamide], 10 to 100 nM. For `CCCOc1cc(OCCCOC)cc(Oc2cc3c(cc2NS(=O)(=O)c2cn(C(C)CC)cn2)n(C)c(=O)n3C)c1` (stereo not drawn) [Example 148, 1-(sec-butyl)-N-(6-(3-(3-methoxypropoxy)-5-propoxyphenoxy)-1,3-dimethyl-2-oxo-2,3-dihydro-1H-benzo[d]imidazol-5-yl)-1H-imidazole-4-sulfonamide] the value was 10 to 100 nM. Take `CCCOc1cc(OCCCOC)cc(Oc2cc3c(cc2NS(=O)(=O)c2cn(C)c(Cl)n2)n(C)c(=O)n3C)c1` [Example 149, 2-chloro-N-(6-(3-(3-methoxypropoxy)-5-propoxyphenoxy)-1,3-dimethyl-2-oxo-2,3-dihydro-1H-benzo[d]imidazol-5-yl)-1-methyl-1H-imidazole-4-sulfonamide]: the concentration for half-maximal inhibition (IC50) was in the range of 10 to 100 nM. For `CCCOc1cc(OCCCOC)cc(Oc2cc3c(cc2NS(=O)(=O)C2CC2)n(C)c(=O)n3C)c1` [Example 150, N-(6-(3-(3-methoxypropoxy)-5-propoxyphenoxy)-1,3-dimethyl-2-oxo-2,3-dihydro-1H-benzo[d]imidazol-5-yl)cyclopropanesulfonamide] the value was 100 to 1000 nM; for `CCCOc1cc(OCCCOC)cc(Oc2cc3c(cc2NS(=O)(=O)c2cccc(OC)c2)n(C)c(=O)n3C)c1` [Example 151, 3-methoxy-N-(6-(3-(3-methoxypropoxy)-5-propoxyphenoxy)-1,3-dimethyl-2-oxo-2,3-dihydro-1H-benzo[d]imidazol-5-yl)benzenesulfonamide], 10 to 100 nM. For `CCCOc1cc(OCCCOC)cc(Oc2cc3c(cc2NS(=O)(=O)c2cn(C)cn2)n(C)c(=O)n3C)c1` [Example 152, N-(6-(3-(3-methoxypropoxy)-5-propoxyphenoxy)-1,3-dimethyl-2-oxo-2,3-dihydro-1H-benzo[d]imidazol-5-yl)-1-methyl-1H-imidazole-4-sulfonamide] the value was 10 to 100 nM; for `CCCOc1cc(OCCCOC)cc(Oc2cc3c(cc2NS(=O)(=O)c2cnn(C)c2)n(C)c(=O)n3C)c1` [Example 153, N-(6-(3-(3-methoxypropoxy)-5-propoxyphenoxy)-1,3-dimethyl-2-oxo-2,3-dihydro-1H-benzo[d]imidazol-5-yl)-1-methyl-1H-pyrazole-4-sulfonamide], 10 to 100 nM.

Consider `CCCOc1cc(OCCCOC)cc(Oc2cc3c(cc2NS(=O)(=O)c2cnn(C)c2C)n(C)c(=O)n3C)c1` [Example 154], for which the IC50 was in the range of 10 to 100 nM. For `CCCOc1cc(OCCCOC)cc(Oc2cc3c(cc2NS(=O)(=O)c2cccc(C)c2)n(C)c(=O)n3C)c1` [Example 155, N-(6-(3-(3-methoxypropoxy)-5-propoxyphenoxy)-1,3-dimethyl-2-oxo-2,3-dihydro-1H-benzo[d]imidazol-5-yl)-3-methylbenzenesulfonamide] the value was 100 to 1000 nM. As for `CCCOc1cc(OCCCOC)cc(Oc2cc3c(cc2NS(=O)(=O)c2cccc(F)c2)n(C)c(=O)n3C)c1` [Example 156, 3-fluoro-N-(6-(3-(3-methoxypropoxy)-5-propoxyphenoxy)-1,3-dimethyl-2-oxo-2,3-dihydro-1H-benzo[d]imidazol-5-yl)benzenesulfonamide], the IC50 fell in the range of 100 to 1000 nM.

Take `CCCOc1cc(OCCCOC)cc(Oc2cc3c(cc2NS(=O)(=O)c2ccc(OC)cc2)n(C)c(=O)n3C)c1` [Example 157, 4-methoxy-N-(6-(3-(3-methoxypropoxy)-5-propoxyphenoxy)-1,3-dimethyl-2-oxo-2,3-dihydro-1H-benzo[d]imidazol-5-yl)benzenesulfonamide]: the IC50 was 100 to 1000 nM.

For `CCCOc1cc(OCCCOC)cc(Oc2cc3c(cc2NS(=O)(=O)c2ccccn2)n(C)c(=O)n3C)c1` [Example 158, N-(6-(3-(3-methoxypropoxy)-5-propoxyphenoxy)-1,3-dimethyl-2-oxo-2,3-dihydro-1H-benzo[d]imidazol-5-yl)pyridine-2-sulfonamide], the IC50 lay in the range of 10 to 100 nM. For `CCCOc1cc(OCCCOC)cc(Oc2cc3c(cc2NS(=O)(=O)c2ccc(OC)c(NC(C)=O)c2)n(C)c(=O)n3C)c1` [Example 159, N-(2-methoxy-5-(N-(6-(3-(3-methoxypropoxy)-5-propoxyphenoxy)-1,3-dimethyl-2-oxo-2,3-dihydro-1H-benzo[d]imidazol-5-yl)sulfamoyl)phenyl)acetamide] the value was 10 to 100 nM; for `CCCOc1cc(OCCCOC)cc(Oc2cc3c(cc2NS(=O)(=O)c2cccc(CC)c2)n(C)c(=O)n3C)c1` [Example 160, 3-ethyl-N-(6-(3-(3-methoxypropoxy)-5-propoxyphenoxy)-1,3-dimethyl-2-oxo-2,3-dihydro-1H-benzo[d]imidazol-5-yl)benzenesulfonamide], 100 to 1000 nM; for `CCCOc1cc(OCCCOC)cc(Oc2cc3c(cc2NS(=O)(=O)c2ccc(OCC)c(C)c2)n(C)c(=O)n3C)c1` [Example 161, 4-ehoxy-N-(6-(3-(3-methoxypropoxy)-5-propoxyphenoxy)-1,3-dimethyl-2-oxo-2,3-dihydro-benzo[d]imidazol-5-yl)-3-methylbenzenesulfonamide], 100 to 1000 nM. For `CCCOc1cc(OCCCOC)cc(Oc2cc3c(cc2NS(=O)(=O)c2ccc4c(c2)COC4)n(C)c(=O)n3C)c1` [Example 162, N-(6-(3-(3-methoxypropoxy)-5-propoxyphenoxy)-1,3-dimethyl-2-oxo-2,3-dihydro-1H-benzo[d]imidazol-5-yl)-1,3-dihydroisobenzofuran-5-sulfonamide] the value was 100 to 1000 nM; for `CCCOc1cc(OCCCOC)cc(Oc2cc3c(cc2NS(=O)(=O)c2ccccc2)n(C)c(=O)n3C)c1` [Example 163, N-(6-(3-(3-methoxypropoxy)-5-propoxyphenoxy)-1,3-dimethyl-2-oxo-2,3-dihydro-1H-benzo[d]imidazol-5-yl)benzenesulfonamide], 100 to 1000 nM.

The values above are taken from patent US20160060260A1, “BROMODOMAIN INHIBITORS FOR TREATING DISEASE” (Board of Regents, The University of Texas System, priority 2014, published 2016).
